Assay results as given in patent US9023789B2, “Amylin analogs and pharmaceutical compositions thereof” (Novo Nordisk A/S, priority 2012, dated 2015).
Values after ≈ are worked out from the molar mass of the structure shown. Where two headings read alike, the source gives them in different places. Numbered stars: 1 amine (or outer) side, 2 acyl side, 3 side chain; on linkers, the order of the positions; unused ones are H or OH. Bridge positions count the residues as written; N and C are the ends. Peptide text beside a SMILES is read from it. * marks the point of attachment. C20 diacid = O=C(O)CCCCCCCCCCCCCCCCCCC(=O)*; γGlu = O=C(O)[C@H](CCC(=O)[*:2])N[*:1]

Experiments:
[1] = ASSAY (IV) determination of solubility; type: physicochemical
Summary of the method: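 Dissolve polypeptide in water ([…] stock); combine 1:1 with each 100 mM buffer (glycylglycine pH 3.0/4.0/5.0; bistrispropane pH 6.0/6.5/7.0/7.5/8.0); hold 18 hours at room temperature; centrifuge; quantify polypeptide by UPLC.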

[2] = target: T1, human amylin receptor (membranes from Amylin 3(a)/CRE-luc cells) (Homo sapiens, UniProt O60896+P30988); assay: ASSAY (V) binding to the human amylin receptor (SPA, 125I-rat amylin);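 note: competition binding of cell membranes (35 ng/µL) mixed with SPA beads in 384-well plates at 40 µL total volume, read by scintillation counting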
T1 construct: expressed in transfected cells
T1 sequence (P30988 25-474): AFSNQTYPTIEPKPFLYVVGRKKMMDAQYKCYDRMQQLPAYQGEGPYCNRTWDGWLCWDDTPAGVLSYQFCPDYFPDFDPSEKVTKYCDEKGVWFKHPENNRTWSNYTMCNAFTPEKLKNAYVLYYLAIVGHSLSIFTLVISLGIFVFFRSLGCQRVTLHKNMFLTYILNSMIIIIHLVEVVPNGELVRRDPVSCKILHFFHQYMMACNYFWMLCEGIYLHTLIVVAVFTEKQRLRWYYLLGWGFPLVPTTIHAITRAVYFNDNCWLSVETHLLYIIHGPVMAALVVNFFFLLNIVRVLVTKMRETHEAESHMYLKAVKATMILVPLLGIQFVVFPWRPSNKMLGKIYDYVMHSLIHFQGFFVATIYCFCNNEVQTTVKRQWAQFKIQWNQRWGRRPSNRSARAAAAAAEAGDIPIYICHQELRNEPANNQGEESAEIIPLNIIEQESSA
T1 sequence (O60896 24-148 partner): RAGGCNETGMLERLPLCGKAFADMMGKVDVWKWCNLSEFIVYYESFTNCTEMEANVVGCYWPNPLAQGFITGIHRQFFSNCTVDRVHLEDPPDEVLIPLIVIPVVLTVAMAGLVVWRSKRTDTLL

[3] = target: T2, rat amylin receptor (rat calcitonin receptor + rat RAMP 3) (Rattus norvegicus, UniProt P32214+Q9JJ73); assay: ASSAY (VI) binding to the rat amylin receptor
T2 construct: expressed in transfected cells; host or cells: BHK tk'ts 13 (transient, FuGENE 6), membranes
T2 sequence (P32214 25-479 isoform P32214-2 limits assumed): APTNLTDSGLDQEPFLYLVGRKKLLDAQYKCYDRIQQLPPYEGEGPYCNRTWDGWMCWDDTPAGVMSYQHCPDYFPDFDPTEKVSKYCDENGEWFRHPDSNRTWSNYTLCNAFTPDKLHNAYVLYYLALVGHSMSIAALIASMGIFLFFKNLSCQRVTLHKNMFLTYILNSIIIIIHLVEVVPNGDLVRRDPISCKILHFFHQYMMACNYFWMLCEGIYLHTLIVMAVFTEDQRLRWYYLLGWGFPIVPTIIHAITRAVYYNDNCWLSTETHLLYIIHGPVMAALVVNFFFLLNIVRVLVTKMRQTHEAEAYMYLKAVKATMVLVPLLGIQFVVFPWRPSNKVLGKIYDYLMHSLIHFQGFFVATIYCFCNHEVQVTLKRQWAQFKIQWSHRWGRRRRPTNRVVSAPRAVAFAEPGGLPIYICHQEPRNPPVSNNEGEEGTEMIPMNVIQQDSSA
T2 sequence (Q9JJ73 23-147 partner): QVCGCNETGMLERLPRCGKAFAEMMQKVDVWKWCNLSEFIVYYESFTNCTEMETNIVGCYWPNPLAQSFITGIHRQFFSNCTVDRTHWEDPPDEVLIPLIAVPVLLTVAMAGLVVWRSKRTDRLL
Summary of the method: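 Binding to the rat amylin receptor was determined with membrane preparations. The receptor was expressed by transiently transfecting BHK tk′ts 13 cells with rat calcitonin receptor, using FuGENE® 6 (Roche) according to the manufacturer's recommendations. Roughly 48 hours later the cells were harvested and their membranes isolated.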

[4] = target: T3, rat calcitonin receptor (Rattus norvegicus, UniProt P32214); assay: ASSAY (VIII) binding to the rat calcitonin receptor; conditions: Table 7, read-out: rCTR bind IC50
T3 construct: expressed in transfected cells; host or cells: BHK tk'ts 13 (transient, FuGENE 6), membranes
T3 sequence (P32214 25-479 isoform P32214-2 limits assumed): T2 sequence (P32214 25-479 isoform P32214-2 limits assumed)
Summary of the method: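 Rat calcitonin receptor is expressed transiently in BHK tk′ts 13 cells cultured in DMEM with 10% FBS. Roughly two days (approximately 48 hours) post-transfection, cells are harvested for membrane preparation.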

## CC[C@H](C)[C@H](NC(=O)[C@H](C)NC(=O)CNC(=O)[C@H](Cc1ccccc1)NC(=O)[C@H](CC(N)=O)NC(=O)[C@@H]1CCCN1C(=O)[C@H](CO)NC(=O)[C@H](CO)NC(=O)[C@H](Cc1c[nH]cn1)NC(=O)[C@H](CCCNC(=N)N)NC(=O)[C@H](CC(C)C)NC(=O)[C@H](Cc1ccccc1)NC(=O)[C@H](Cc1c[nH]cn1)NC(=O)[C@H](C)NC(=O)[C@H](CC(C)C)NC(=O)[C@H](CCCNC(=N)N)NC(=O)[C@H](CCC(N)=O)NC(=O)[C@@H](NC(=O)[C@H](C)NC(=O)[C@@H]1CSSC[C@H](NC(=O)[C@H](CCCNC(=N)N)NC(=O)CNC(=O)CC[C@H](NC(=O)CCCCCCCCCCCCCCCCCCC(=O)O)C(=O)O)C(=O)N[C@@H](CC(N)=O)C(=O)N[C@@H]([C@@H](C)O)C(=O)N[C@@H](C)C(=O)N[C@@H]([C@@H](C)O)C(=O)N1)[C@@H](C)O)C(=O)N1CCC[C@H]1C(=O)N[C@@H](CO)C(=O)N[C@@H](CO)C(=O)N[C@H](C(=O)N[C@@H](CC(N)=O)C(=O)N[C@H](C(=O)NCC(=O)N1CCC[C@H]1C(=O)N[C@@H](CC(N)=O)C(=O)N[C@H](C(=O)N[C@@H](Cc1ccc(O)cc1)C(N)=O)[C@@H](C)O)C(C)C)[C@@H](C)O [Example 102] ({C20 diacid-γGlu}-GRCNTATCATQRLAHFLRHSSPNFGAIPSSTNVGPNTY-NH2; disulfide 3-8 (inferred))
[1]; bistrispropane buffer, pH 6.5, read-out: Solubility pH 6.5 Concentration
  solubility at 18 h: ≥ 200 µM
[1]; bistrispropane buffer, pH 7.5, read-out: Solubility pH 7.5 Concentration
  solubility at 18 h: 88 µM (≈ 396 µg/mL)
[1]; bistrispropane buffer, pH 6.0, read-out: Solubility pH 6.0 Concentration
  solubility at 18 h: ≥ 200 µM
[1]; bistrispropane buffer, pH 7.0, read-out: Solubility pH 7.0 Concentration
  solubility at 18 h: 154 µM (≈ 693 µg/mL)
[1]; bistrispropane buffer, pH 8.0, read-out: Solubility pH 8.0 Concentration
  solubility at 18 h: 113 µM (≈ 508 µg/mL)
[1]; glycylglycine buffer, pH 3.0, read-out: Solubility pH 3.0 Concentration
  solubility at 18 h: ≥ 200 µM
[1]; glycylglycine buffer, pH 4.0, read-out: Solubility pH 4.0 Concentration
  solubility at 18 h: 197 µM (≈ 886 µg/mL)
[1]; glycylglycine buffer, pH 5.0, read-out: Solubility pH 5.0 Concentration
  solubility at 18 h: 195 µM (≈ 877 µg/mL)
[2]; Table 5, selectivity, hCTR bind IC50 / hAmylin-R bind IC50
  Ratio hCT/hAmylin binding: 36.2
[2]; Table 5a, selectivity, hCTR bind IC50 / hAmylin-R bind IC50
  Ratio hCT/hAmylin binding: 36.2
[2]; Table 5b, selectivity, hCTR bind IC50 / hAmylin-R bind IC50
  Ratio hCT/hAmylin binding: 36.2
[2]; Table 5c, selectivity, hCTR bind IC50 / hAmylin-R bind IC50
  Ratio hCT/hAmylin binding: 36.2
[2]; Table 7, human binding selectivity, included for comparison
  Ratio hCT/hAmylin binding: 36.2
[2]; Table 7a (preferred compounds), human binding selectivity, included for comparison
  Ratio hCT/hAmylin binding: 36.2
[2]; ratio of human calcitonin receptor binding IC50 to human amylin receptor binding IC50
  Ratio hCT/hAmylin binding: 36.2
[3]; Table 7, binding to rat amylin receptor, read-out: rAmylin-R bind IC50
  IC50: 0.674 nM
[3]; Table 7, rat binding selectivity, rCTR IC50 / rAmylin-R IC50
  Ratio rCT/rAmylin binding: 97.7
[3]; Table 7a (preferred compounds), rat binding selectivity, rCTR IC50 / rAmylin-R IC50
  Ratio rCT/rAmylin binding: 97.7
[3]; ratio of rCTR bind IC50 to rAmylin-R bind IC50
  Ratio rCT/rAmylin binding: 97.7
[4]
  IC50: 65.9 nM
